# From patent US20220196635A1, “Fibrosis Assay” (Georgia Tech Research Corporation, priority 2020, published 2022)
# Experiments:
# [1] = test system: normal human lung fibroblasts (NHLF); experiment: mRNA quantification by qPCR in fibrin remodeling assay; type: cell-based
# Method: RNA extraction and qPCR: Cells from 12 wells at the indicated time points were pooled together per condition and lysed with 350 μl of RLT lysis buffer. RNA was extracted using a RNeasy Mini Kit (Qiagen, #74104) and was performed according to the manufacturer's instructions. RNA sample concentration was measured using a NanoDrop OneC Spectrophotometer (Thermo Fisher Scientific). A High-Capacity RNA-to-cDNA Kit (Applied Biosystems, #4387406) was used for reverse transcription; 400 ng of RNA for each sample was mixed with 10 μl primer, 1 μl reverse transcriptase enzyme and nuclease-free water to bring the final reaction volume to 20 μl. The reaction was performed for 60 minutes at 37° C., followed by 5 minutes at 95° C. using a Veriti Thermal Cycler (Applied Biosystems). qPCR was performed using a QuantStudio 3 Real-Time PCR System (Applied Biosystems). Each reaction consisted of 1 μl cDNA, 10 μl TaqMan Fast advanced master mix (Applied Biosystems, #4444556), 1 μl primer, and 6 μl nuclease-free water. TaqMan primers (Applied Biosystems) for smooth muscle actin (ACTA2, Hs00426835_g1), plasminogen activator (PLAT, Hs00263492_m1), Plasminogen activator inhibitor-1 (SERPINE1, Hs00167155_m1), collagen type I (COL1A1, Hs00164004_m1), plasminogen activator (PLAU, Hs01547054_m1), and Ki67 (MKI67, Hs01032443_m1) were utilized. The QuantStudio 3 was programmed with a 2-minute hold at 95° C., followed by 40 cycles of 95° C. for 1 second and 60° C. for 20 seconds. Each sample was run with biological triplicates. The relative gene expression was calculated using the […], with glyceraldehyde-3-phosphate dehydrogenase as the housekeeping gene (GAPDH, Hs02786624_g1). Fold changes were normalized with respect to the time zero timepoint with no TGF-β1 stimulation and are reported as the mean with the error bars representing the minimum and maximum values.
# [2] = test system: human primary lung fibroblasts (NHLF, IPF) in fibrin micro-scaffolds; experiment: Contracting scar-in-a-drop fibroplasia assay (final projected area of cell-ECM spheroids); type: cell-based
# Method: Human primary lung fibroblasts were used in all experiments presented in this paper. Unless otherwise noted, experiments utilized normal human lung fibroblasts (NHLF B lot #0000580583; Lonza) from a person with a history of smoking. For experiments evaluating donor variability, the following cells were utilized: NHLF A (NHLF lot #0000608197; Lonza) from a person, IPF A (IPF lot #0000627840; Lonza) from a person, and IPF B (IPF lot #6F5002; Lonza) from a person. All cells were cultured in fibroblast growth media (FGM; Lonza). Cells were passaged at 80-90% confluence and were sub-cultured in 1:3 ratios by trypsinization. When at the desired confluence, cells were washed with PBS and 0.05% trypsin solution was added to the flask. Cells were incubated for 2 min, and then harvested and centrifuged ([…], 5 min) in a conical tube. The supernatant was aspirated and the cell pellet was re-suspended in FBS-free culture media. When used in fibrin degradation experiments, cells were re-suspended at 2× the final desired concentration (2500 cells/ul unless otherwise indicated). To promote collagen production and contraction in addition to fibrin degradation, serum (bovine or human) were added at 2% or higher up to about 10%. Higher cell densities (about 2500 cells/ul and higher up to about 10,000 cells/ul) also promote collagen production. All experiments were conducted with cells at or below passage 8 except for high passage experiments conducted at passage 12. In all experiments, media was changed every 48 hours and any media additives (plasminogen, TGF-β1, drugs, etc.,) were included.
# ATPS printing of fibrin micro-scaffolds has previously described above. Briefly, working solutions of PEG with 0.1 U/mL of thrombin were warmed to 37° C. and pipetted into a 96-well plate. For production of droplets, fibrinogen-DEX solutions with cell suspension were maintained at 37° C. and 4 μl per assay (unless otherwise noted) was pipetted directly into the PEG-thrombin media using a semi-automated repeater pipette (Repeater E3X; Eppendorf). Following dispensing of the DEX phase, the plates were placed in an ambient air incubator at 37° C. for 30 min to allow the thrombin to enzymatically crosslink the fibrinogen into a fibrin matrix (FIG. 6A). The PEG-enriched media was removed using a 12-channel micropipette and replaced with 100 μl of fully supplemented media in each well. When applicable, this media addition was supplemented with stimuli as detailed in example 17 below. For the duration of each experiment, assay plates were imaged every 2 hours at 4× with an automated cell culture monitoring system (Incucyte S3; Sartorius). As the assay proceeded, the fibroblasts progressively remodeled the fibrin scaffold as illustrated in FIG. 6C.
# After each experiment, the final projected areas of the cell-ECM spheroids were determined from brightfield images taken at the final time point using a benchtop imaging system (2× objective; EVOS M7000; ThermoFisher). These images were then segmented through a process of pixel classification, thresholding, and morphological filtering in order to isolate the cell-ECM construct area from the background.
# Pixel classification implemented Ilastic, a freely available image classification tool developed by the European Molecular Biology Laboratory. Ilastik's pixel classification utility implements a random forest classifier for quick and robust segmentation. In order to train the classifier, 10 characteristic images were selected to include different stages of ECM remodeling. In this step, each individual pixel is assigned a probability for belonging to layers for the background or the cell-ECM construct. Ilastik enables interactive training of the random forest classifier via user annotations of the training images. […]
# [3] = TGF-β1 stimulation compared to the control time series
substance,measurement,setting,value
"TGF-β1: Human Recombinant TGF-β1 (Peprotech), pro-fibrotic, anti-fibrinolytic stimulus",COL1A1 mRNA expression,[1]; TGF-β1 dose,dose-dependent increase in COL1A1
same,ACTA2 (aSMA) mRNA expression,[1]; TGF-β1 dose and time course,increased expression for the highest concentration of TGF-β1
same,SERPENE1 (PAI-1) mRNA expression,[1]; TGF-β1 dose and time course,significant time-dependent and dose-dependent increases in expression
same,tPA (PLAT) mRNA expression,[1]; [3],relative downregulation
same,uPA (PLAU) mRNA expression,[1]; [3],relative upregulation
same,MKI67 mRNA expression (proliferation marker),[1]; higher concentrations of TGF-β1,significantly upregulated
same,projected area of the final contracted cell-ECM spheroid,"[2]; TGF-β1 0, 0.5, 2 ng/mL, NHLF",significant dose-dependent increase
same,contraction of cell-ECM construct,[2]; TGF-β1 10 ng/mL (highest concentration),did not contract within the duration of the experiment
same,50% contraction time,"[2]; TGF-β1 stimulation, kernel density estimates (FIG. 12A)",increases in both 50% contraction time and final assay area
